From BigSolDB 2.1

O=C(O)[C@@H]1C[C@@H](O)CN1
Conditions | solubility (mole fraction)
in 1,4-dioxane, 288.15 K | 0.00041
in 1,4-dioxane, 293.15 K | 0.00063
in 1,4-dioxane, 298.15 K | 0.00085
in 1,4-dioxane, 303.15 K | 0.00108
in 1,4-dioxane, 308.15 K | 0.00131
in 1,4-dioxane, 313.15 K | 0.00153
in 1,4-dioxane, 318.15 K | 0.00178
in 1,4-dioxane, 323.15 K | 0.00204
in 1,4-dioxane, 328.15 K | 0.00238
in 1,4-dioxane, 333.15 K | 0.00274
in 2-butanone, 283.15 K | 4.4e-05
in 2-butanone, 288.15 K | 7.9e-05
in 2-butanone, 293.15 K | 0.000128
in 2-butanone, 298.15 K | 0.00019
in 2-butanone, 303.15 K | 0.00028
in 2-butanone, 308.15 K | 0.000382
in 2-butanone, 313.15 K | 0.000483
in 2-butanone, 318.15 K | 0.000602
in 2-butanone, 323.15 K | 0.000723
in 2-butanone, 328.15 K | 0.000865
in 2-butanone, 333.15 K | 0.00101
in acetone, 283.15 K | 0.000922
in acetone, 288.15 K | 0.0011
in acetone, 293.15 K | 0.00139
in acetone, 298.15 K | 0.00164
in acetone, 303.15 K | 0.00205
in acetone, 308.15 K | 0.00235
in acetone, 313.15 K | 0.00277
in acetone, 318.15 K | 0.0032
in acetone, 323.15 K | 0.00383
in acetone, 328.15 K | 0.00441
in acetonitrile, 288.15 K | 3.3e-05
in acetonitrile, 293.15 K | 6.5e-05
in acetonitrile, 298.15 K | 0.000103
in acetonitrile, 303.15 K | 0.000146
in acetonitrile, 308.15 K | 0.000186
in acetonitrile, 313.15 K | 0.000226
in acetonitrile, 318.15 K | 0.000267
in acetonitrile, 323.15 K | 0.000315
in acetonitrile, 328.15 K | 0.000358
in acetonitrile, 333.15 K | 0.000416
in dichloromethane, 283.15 K | 0.000134
in dichloromethane, 288.15 K | 0.000221
in dichloromethane, 293.15 K | 0.000313
in dichloromethane, 298.15 K | 0.000412
in dichloromethane, 303.15 K | 0.000511
in dichloromethane, 308.15 K | 0.000614
in ethanol, 283.15 K | 7e-05
in ethanol, 288.15 K | 0.000109
in ethanol, 293.15 K | 0.000145
in ethanol, 298.15 K | 0.000188
in ethanol, 303.15 K | 0.000226
in ethanol, 308.15 K | 0.000273
in ethanol, 313.15 K | 0.000313
in ethanol, 318.15 K | 0.000378
in ethanol, 323.15 K | 0.000431
in ethanol, 328.15 K | 0.000512
in ethanol, 333.15 K | 0.000573
in ethyl acetate, 283.15 K | 0.000455
in ethyl acetate, 288.15 K | 0.000653
in ethyl acetate, 293.15 K | 0.000863
in ethyl acetate, 298.15 K | 0.00108
in ethyl acetate, 303.15 K | 0.00132
in ethyl acetate, 308.15 K | 0.00167
in ethyl acetate, 313.15 K | 0.0019
in ethyl acetate, 318.15 K | 0.00227
in ethyl acetate, 323.15 K | 0.00262
in ethyl acetate, 328.15 K | 0.00314
in ethyl acetate, 333.15 K | 0.00379
in isobutanol, 283.15 K | 6.9e-05
in isobutanol, 288.15 K | 8.2e-05
in isobutanol, 293.15 K | 9.7e-05
in isobutanol, 298.15 K | 0.000113
in isobutanol, 303.15 K | 0.000143
in isobutanol, 308.15 K | 0.000189
in isobutanol, 313.15 K | 0.000222
in isobutanol, 318.15 K | 0.000263
in isobutanol, 323.15 K | 0.000301
in isobutanol, 328.15 K | 0.000346
in isobutanol, 333.15 K | 0.000383
in isopropanol, 283.15 K | 3.5e-05
in isopropanol, 288.15 K | 6.8e-05
in isopropanol, 293.15 K | 9.9e-05
in isopropanol, 298.15 K | 0.000119
in isopropanol, 303.15 K | 0.000154
in isopropanol, 308.15 K | 0.000204
in isopropanol, 313.15 K | 0.000254
in isopropanol, 318.15 K | 0.00031
in isopropanol, 323.15 K | 0.00036
in isopropanol, 328.15 K | 0.000419
in isopropanol, 333.15 K | 0.000493
in methanol, 283.15 K | 0.000127
in methanol, 288.15 K | 0.000149
in methanol, 293.15 K | 0.000171
in methanol, 298.15 K | 0.000212
in methanol, 303.15 K | 0.000253
in methanol, 308.15 K | 0.000292
in methanol, 313.15 K | 0.000328
in methanol, 318.15 K | 0.000407
in methanol, 323.15 K | 0.000525
in methanol, 328.15 K | 0.000653
in methanol, 333.15 K | 0.000784
in methyl acetate, 283.15 K | 1.5e-05
in methyl acetate, 288.15 K | 4e-05
in methyl acetate, 293.15 K | 8e-05
in methyl acetate, 298.15 K | 0.000116
in methyl acetate, 303.15 K | 0.000153
in methyl acetate, 308.15 K | 0.000219
in methyl acetate, 313.15 K | 0.000278
in methyl acetate, 318.15 K | 0.000331
in methyl acetate, 323.15 K | 0.0004
in methyl acetate, 328.15 K | 0.000474
in n-butanol, 283.15 K | 8.8e-05
in n-butanol, 288.15 K | 0.0001
in n-butanol, 293.15 K | 0.000122
in n-butanol, 298.15 K | 0.000142
in n-butanol, 303.15 K | 0.000181
in n-butanol, 308.15 K | 0.000219
in n-butanol, 313.15 K | 0.000264
in n-butanol, 318.15 K | 0.000316
in n-butanol, 323.15 K | 0.000362
in n-butanol, 328.15 K | 0.00042
in n-butanol, 333.15 K | 0.0005
in n-pentanol, 283.15 K | 6.3e-05
in n-pentanol, 288.15 K | 8.4e-05
in n-pentanol, 293.15 K | 0.000114
in n-pentanol, 298.15 K | 0.000142
in n-pentanol, 303.15 K | 0.00017
in n-pentanol, 308.15 K | 0.000215
in n-pentanol, 313.15 K | 0.000321
in n-pentanol, 318.15 K | 0.000487
in n-pentanol, 323.15 K | 0.000628
in n-pentanol, 328.15 K | 0.000805
in n-pentanol, 333.15 K | 0.00104
in n-propanol, 283.15 K | 6.6e-05
in n-propanol, 288.15 K | 0.000109
in n-propanol, 293.15 K | 0.000126
in n-propanol, 298.15 K | 0.000154
in n-propanol, 303.15 K | 0.000203
in n-propanol, 308.15 K | 0.000253
in n-propanol, 313.15 K | 0.000304
in n-propanol, 318.15 K | 0.000355
in n-propanol, 323.15 K | 0.000409
in n-propanol, 328.15 K | 0.000456
in n-propanol, 333.15 K | 0.000502
in sec-butanol, 283.15 K | 3.8e-05
in sec-butanol, 288.15 K | 6.8e-05
in sec-butanol, 293.15 K | 9e-05
in sec-butanol, 298.15 K | 0.000129
in sec-butanol, 303.15 K | 0.000166
in sec-butanol, 308.15 K | 0.000205
in sec-butanol, 313.15 K | 0.000245
in sec-butanol, 318.15 K | 0.000293
in sec-butanol, 323.15 K | 0.000321
in sec-butanol, 328.15 K | 0.000365
in sec-butanol, 333.15 K | 0.000407
in water, 283.15 K | 0.0457
in water, 288.15 K | 0.0473
in water, 293.15 K | 0.0493
in water, 298.15 K | 0.0511
in water, 303.15 K | 0.053
in water, 308.15 K | 0.0554
in water, 313.15 K | 0.0571
in water, 318.15 K | 0.059
in water, 323.15 K | 0.0612
in water, 328.15 K | 0.0632
in water, 333.15 K | 0.0671
